Source: ChEMBL document CHEMBL6182949 (J Med Chem, 2025)
The source made the active and inactive calls. The rule behind the calls is not given here.

Columns and labels:
[1] = molecular target: Protein cereblon/Interleukin-1 receptor-associated kinase 4 (Mus musculus) (UniProt Q8C7D2+Q8R4K2); assay: In-vivo PROTAC activity at C57BL/6 mouse assessed as reduction in IRAK4 level in spleen at 100 mg/kg, po measured after 24 hrs by Western blot analysis; assay type: functional, organism-based; design: scale not given: the % may be the effect or the level left
[2] = Clearance in male C57BL/6 mouse at 2 mg/kg, iv measured up to 24 hrs by LC-MS/MS analysis; assay type: ADME, organism-based; conditions: in vivo
[3] = AUClast in cynomolgus monkey at 20 mg/kg, po measured up to 24 hrs by LC-MS/MS analysis; assay type: ADME, organism-based, Macaca fascicularis; conditions: in vivo
[4] = Cmax in Sprague-Dawley rat at 10 mg/kg, po measured up to 24 hrs by LC-MS/MS analysis; assay type: ADME, organism-based; conditions: in vivo
[5] = molecular target: T1, Protein cereblon/Interleukin-1 receptor-associated kinase 4 (Homo sapiens, UniProt Q9NWZ3+Q96SW2); assay: PROTAC activity at CRBN/IRAK4 in human PBMC cells assessed as induction of IRAK4 degradation incubated for 24 hrs by HiBiT lytic reagent based analysis relative to control; assay type: cell-based
Target sequence in this assay (Q96SW2 whole entry, looked up): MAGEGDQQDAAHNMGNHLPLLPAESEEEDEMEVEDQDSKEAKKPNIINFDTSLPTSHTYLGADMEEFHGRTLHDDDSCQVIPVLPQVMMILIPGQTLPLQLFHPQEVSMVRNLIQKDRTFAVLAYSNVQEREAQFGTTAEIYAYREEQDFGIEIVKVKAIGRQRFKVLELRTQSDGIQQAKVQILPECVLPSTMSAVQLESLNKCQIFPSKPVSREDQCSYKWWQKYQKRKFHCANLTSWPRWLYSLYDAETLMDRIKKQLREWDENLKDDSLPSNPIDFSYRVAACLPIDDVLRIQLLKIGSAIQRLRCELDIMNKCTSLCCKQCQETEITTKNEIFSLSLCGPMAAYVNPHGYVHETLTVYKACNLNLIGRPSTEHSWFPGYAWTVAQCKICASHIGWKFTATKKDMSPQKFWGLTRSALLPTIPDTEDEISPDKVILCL
Target sequence in this assay (Q9NWZ3 whole entry, looked up): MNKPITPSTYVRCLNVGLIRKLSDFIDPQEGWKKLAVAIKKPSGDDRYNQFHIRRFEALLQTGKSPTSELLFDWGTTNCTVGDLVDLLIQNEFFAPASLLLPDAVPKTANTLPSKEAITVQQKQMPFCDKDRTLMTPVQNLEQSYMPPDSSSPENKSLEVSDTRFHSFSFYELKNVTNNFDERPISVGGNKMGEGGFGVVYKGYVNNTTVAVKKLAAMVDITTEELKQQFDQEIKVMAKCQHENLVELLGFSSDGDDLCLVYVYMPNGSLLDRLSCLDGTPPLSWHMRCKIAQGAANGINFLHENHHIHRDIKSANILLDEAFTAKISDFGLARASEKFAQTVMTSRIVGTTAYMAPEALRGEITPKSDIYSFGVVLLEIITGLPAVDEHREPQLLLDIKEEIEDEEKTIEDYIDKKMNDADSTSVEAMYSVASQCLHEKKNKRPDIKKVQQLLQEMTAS

Mus musculus [6] = assay: Anti-arthritic activity against collagen-induced arthritis DBA/1 mouse model assessed as improvement in delta paw volume at 30 mg/kg, po administered for 14 days […]; assay type: functional, organism-based; conditions: time 14.0 day
[7] = molecular target: T1, Protein cereblon/Interleukin-1 receptor-associated kinase 4; assay: PROTAC activity at CRBN/IRAK4 in human PBMC cells assessed as induction of IRAK4 degradation incubated for 24 hrs by HiBiT lytic reagent based analysis; assay type: cell-based
Target sequence in this assay (Q9NWZ3 whole entry): as the sequence (Q9NWZ3 whole entry, looked up) above
Target sequence in this assay (Q96SW2 whole entry): as the sequence (Q96SW2 whole entry, looked up) above

[8] = Metabolic stability in dog liver microsome assessed as half life at 1 uM measured up to 60 mins in presence of NADPH by LC-MS/MS analysis; assay type: ADME, Canis lupus familiaris; conditions: liver microsomes
[9] = Metabolic stability in human liver microsome assessed as half life at 1 uM measured up to 60 mins in presence of NADPH by LC-MS/MS analysis; assay type: ADME; conditions: liver microsomes
[10] = Metabolic stability human hepatocyte assessed as half life at 1 uM measured up to 120 mins by LC-MS/MS analysis; assay type: ADME, cell-based; conditions: hepatocytes
[11] = molecular target: Cereblon/Ikaros (Homo sapiens) (UniProt Q96SW2+Q13422); assay: PROTAC activity at CRBN/IKZF1 in human PBMC cells assessed as induction of SALL4 degradation at 1 uM by Western blot analysis; assay type: cell-based
CYP3A4 = CYP3A4 (Homo sapiens, UniProt P08684); assay: Inhibition of CYP3A4 in human liver microsome using midazolam as substrate at 10 uM preincubated for 5 mins followed by NADPH addition and measured after 10 mins by LC-MS/MS analysis relative to control; assay type: ADME; conditions: human liver microsomes, probe midazolam, time 15 min
[12] = AUClast in cynomolgus monkey at 1 mg/kg, iv measured up to 24 hrs by LC-MS/MS analysis; assay type: ADME, organism-based, Macaca fascicularis; conditions: in vivo
[13] = Oral bioavailability in Sprague-Dawley rat at 10 mg/kg measured up to 24 hrs by LC-MS/MS analysis; assay type: ADME, organism-based; conditions: in vivo
[14] = Permeability across apical to basal side in human Caco-2 cells incubated for 120 mins by LC-MS/MS analysis; assay type: ADME, cell-based; conditions: read-out: permeability
CYP2C19 = CYP2C19 (Homo sapiens, UniProt P33261); assay: Inhibition of CYP2C19 in human liver microsome using (S)-mephenytoin as substrate at 10 uM preincubated for 5 mins followed by NADPH addition and measured after 30 mins by LC-MS/MS analysis relative to control; assay type: ADME; conditions: human liver microsomes, probe (S)-mephenytoin, time 35 min
[15] = Permeability across basolateral to apical side in human Caco-2 cells incubated for 120 mins by LC-MS/MS analysis; assay type: ADME, cell-based; conditions: read-out: permeability
[16] = AUClast in male C57BL/6 mouse at 10 mg/kg, po measured up to 24 hrs by LC-MS/MS analysis; assay type: ADME, organism-based; conditions: in vivo
[17] = Volume of distribution at steady state in Sprague-Dawley rat at 2 mg/kg, iv measured up to 24 hrs by LC-MS/MS analysis; assay type: ADME, organism-based; conditions: in vivo, read-out: Vdss
[18] = Metabolic stability rat hepatocyte assessed as half life at 1 uM measured up to 120 mins by LC-MS/MS analysis; assay type: ADME, cell-based; conditions: hepatocytes
[19] = Metabolic stability in rat liver microsome assessed as half life at 1 uM measured up to 60 mins in presence of NADPH by LC-MS/MS analysis; assay type: ADME; conditions: liver microsomes
[20] = Metabolic stability monkey hepatocyte assessed as half life at 1 uM measured up to 120 mins by LC-MS/MS analysis; assay type: ADME, cell-based, Macaca mulatta; conditions: rhesus monkey, hepatocytes
Mus musculus [21] = assay: Anti-psoriasis effect in IMQ-induced C57BL/6 mouse assessed as reduction in ear thickness at 30 mg/kg administered topically twice daily for 6 days and measured after 24 hrs; assay type: functional, organism-based; conditions: time 7.0 day
[22] = Tmax in Beagle dog at 10 mg/kg, po measured up to 24 hrs by LC-MS/MS analysis; assay type: ADME, organism-based, Canis lupus familiaris; conditions: in vivo
[23] = AUClast in Sprague-Dawley rat at 10 mg/kg, po measured up to 24 hrs by LC-MS/MS analysis; assay type: ADME, organism-based; conditions: in vivo
[24] = molecular target: T2, Protein cereblon/Interleukin-1 receptor-associated kinase 4 (Mus musculus, UniProt Q8C7D2+Q8R4K2); assay: PROTAC activity at CRBN/IRAK4 in mouse PBMC cells assessed as induction of IRAK4 degradation incubated for 24 hrs by HiBiT lytic reagent based analysis; assay type: cell-based
T2 sequence (Q8C7D2 whole entry): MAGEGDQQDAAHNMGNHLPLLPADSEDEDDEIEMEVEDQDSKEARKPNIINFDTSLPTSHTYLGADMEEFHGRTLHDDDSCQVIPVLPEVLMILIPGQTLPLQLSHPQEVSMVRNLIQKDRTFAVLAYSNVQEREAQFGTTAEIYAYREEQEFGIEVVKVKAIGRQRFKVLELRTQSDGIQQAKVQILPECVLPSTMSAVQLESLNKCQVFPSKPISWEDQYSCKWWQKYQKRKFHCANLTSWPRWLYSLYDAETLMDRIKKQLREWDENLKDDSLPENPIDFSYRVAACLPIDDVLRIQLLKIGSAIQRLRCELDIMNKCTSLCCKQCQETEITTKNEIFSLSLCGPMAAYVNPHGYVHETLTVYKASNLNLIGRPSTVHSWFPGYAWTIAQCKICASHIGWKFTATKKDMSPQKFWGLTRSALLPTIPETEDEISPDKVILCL
T2 sequence (Q8R4K2 whole entry): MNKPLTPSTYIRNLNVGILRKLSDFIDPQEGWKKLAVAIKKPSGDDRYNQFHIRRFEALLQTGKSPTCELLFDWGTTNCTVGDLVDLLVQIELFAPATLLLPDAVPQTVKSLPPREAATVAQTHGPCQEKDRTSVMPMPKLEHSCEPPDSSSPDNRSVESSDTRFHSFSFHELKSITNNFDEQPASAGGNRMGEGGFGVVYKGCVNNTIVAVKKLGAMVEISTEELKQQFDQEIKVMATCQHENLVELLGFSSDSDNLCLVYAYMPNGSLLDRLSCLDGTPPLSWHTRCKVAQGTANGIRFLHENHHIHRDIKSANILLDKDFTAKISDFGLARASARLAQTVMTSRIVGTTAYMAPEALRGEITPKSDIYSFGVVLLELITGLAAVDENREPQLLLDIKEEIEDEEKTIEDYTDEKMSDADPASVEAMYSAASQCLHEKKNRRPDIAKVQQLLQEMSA

CYP3A4, sequence (P08684 whole entry): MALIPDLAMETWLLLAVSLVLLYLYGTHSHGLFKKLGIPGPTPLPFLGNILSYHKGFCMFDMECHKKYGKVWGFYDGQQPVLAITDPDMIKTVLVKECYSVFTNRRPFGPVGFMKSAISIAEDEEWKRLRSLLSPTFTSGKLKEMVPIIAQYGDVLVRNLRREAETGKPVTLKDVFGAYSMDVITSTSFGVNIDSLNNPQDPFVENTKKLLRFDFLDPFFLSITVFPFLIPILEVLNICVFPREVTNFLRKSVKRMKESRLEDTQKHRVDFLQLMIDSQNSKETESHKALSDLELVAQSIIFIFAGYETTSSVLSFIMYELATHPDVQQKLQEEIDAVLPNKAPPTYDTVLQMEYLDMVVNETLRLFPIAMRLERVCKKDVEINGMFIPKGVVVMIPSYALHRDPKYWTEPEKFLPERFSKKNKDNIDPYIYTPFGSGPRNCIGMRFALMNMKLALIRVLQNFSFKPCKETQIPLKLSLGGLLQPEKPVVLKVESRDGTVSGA
CYP2C19, sequence (P33261 whole entry): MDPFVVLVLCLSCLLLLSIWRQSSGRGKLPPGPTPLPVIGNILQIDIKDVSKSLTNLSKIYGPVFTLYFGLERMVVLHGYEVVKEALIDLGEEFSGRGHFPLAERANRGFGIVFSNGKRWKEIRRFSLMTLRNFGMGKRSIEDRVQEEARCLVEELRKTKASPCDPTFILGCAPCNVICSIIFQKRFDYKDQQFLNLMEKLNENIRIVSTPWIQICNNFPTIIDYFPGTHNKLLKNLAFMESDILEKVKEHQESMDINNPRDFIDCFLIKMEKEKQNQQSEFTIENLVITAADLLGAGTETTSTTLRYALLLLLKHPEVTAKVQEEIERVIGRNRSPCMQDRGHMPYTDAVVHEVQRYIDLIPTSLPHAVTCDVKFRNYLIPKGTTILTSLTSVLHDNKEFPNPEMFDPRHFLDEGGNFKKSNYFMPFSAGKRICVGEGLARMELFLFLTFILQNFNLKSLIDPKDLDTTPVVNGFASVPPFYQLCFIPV

For `Cn1c(=O)n(C2CCC(=O)NC2=O)c2cccc(C#CCO[C@H]3CC[C@H](CN4CCC5(CC4)Cc4cc(NC(=O)c6coc7cccnc67)c(N6CCC(CO)CC6)cc4O5)CC3)c21` (stereo partly specified), the Activity [1] was greater than 80%, the clearance [2] was 3.13 mL/min/kg and the AUC(0-t) at 24 h [3] was 4000 ng·h/mL. The Cmax [4] was 613 ng/mL, the Emax [5] was 94% and the Activity (Mus musculus [6]) was “Active”. For the same compound, the DC50 [7] was 0.43 nM, the half-life at 1 µM [8] was greater than 3.07 h and the half-life at 1 µM [9] was greater than 3.07 h. The half-life at 1 µM [10] was 2.5 h, the Activity [11] was “inactive” and the inhibition at 10 min, 10 µM (CYP3A4) was 19.1%. For the same compound, the AUC(0-t) at 24 h [12] was 1820 ng·h/mL, the F [13] was 18% and the Papp A→B at 2 h [14] was 0.09 ×10⁻⁶ cm/s. The inhibition at 0.5 h, 10 µM (CYP2C19) was 45.1%, the Papp B→A at 2 h [15] was 0.2 ×10⁻⁶ cm/s and the AUC(0-t) at 24 h [16] was 23400 ng·h/mL. For the same compound, the Vd [17] was 2.66 L/kg, the half-life at 1 µM [18] was 2.65 h and the half-life at 1 µM [19] was greater than 3.07 h. For the same compound, the half-life at 1 µM [20] was greater than 6.18 h, the Activity (Mus musculus [21]) was “Active” and the Tmax [22] was 4 h. The AUClast [23] was 7093 ng·h/mL and the DC50 [24] was 3.57 nM.
